According to patent US20090118223A1, “Novel 2'-c-methyl and 4'c-methyl nucleoside derivatives” (priority 2005, published 2009):
Counter-ions that a name gives are not always drawn. Blank lines part the entries; values can stand above or below the molecule they belong to.

What was measured:
[1] = Liver targeting of 2′-C-methylcytidine and its prodrugs in rats: liver NTP vs plasma nucleoside (Example K); type: in vivo; conditions: male Sprague-Dawley rats, intraperitoneal, 5 mg/kg nucleoside equivalents
Description: The liver specificity of the prodrug compounds 35.3, 35.4, and 35.5 was compared relative to the parent nucleoside, 2′-C-methylcytidine, by measuring the generation of NTP in the liver compared to nucleoside in the plasma.
Prodrug compounds 35.3, 35.4, 35.5, 38.3, 38.6, 40.1, 40.6, 40.7, 40.8, 41.2 or 2′-C-methylcytidine were administered intraperitoneally to male Sprague-Dawley rats at a dose of 5 mg/kg based on nucleoside equivalents (5 mg/kg 2′-C-methylcytidine and ˜7-10 mg/kg prodrug compounds). Plasma concentrations of 2′-C-methylcytidine and the liver concentrations of the 5′-triphosphate of 2′-C-methylcytidine were measured by LC-MS using the standard ion-pairing chromatography methods for nucleoside and triphospliate, respectively, as described in Example E. Conventional SAX HPLC-UV could not differentiate between endogenous CTP and 2′-C-methylcytidine triphosphate.

[2] = system: HCV replication in human liver tissue; assay: HCV-infected human liver slice assay (Example F); type: cell-based; conditions: for amount of HCV RNA released into the culture medium from 48-72 h: treatment of HCV-infected human liver slices for 72 h
Description: Inhibition of HCV replication in human liver tissue was evaluated using the following assay.
Liver from a brain-dead HCV antibody-positive human patient was perfused with ice-cold Viaspan (Dupont Pharmaceutical) preservation solution and received on ice in Viaspan.
Precision-cut liver slices of 200-250 μm thickness and […] diameter were prepared and cultured in Waymouth's cell culture medium (Gibco, Inc.) that was supplemented with 10% fetal bovine serum and 10 mL/L Fungi-Bact at 37° C., and gassed with carbogen (95% O2, 5% CO2) at 0.75 liters/min. Tissue slices were maintained in culture for 72 h. Cell culture medium containing test compound in solution was changed on a daily basis.
At appropriate times of liver slice incubation, liver slices and medium were collected for analysis of HCV RNA (tissue and medium) and nucleotide levels (NTP). All collected media and tissue slices were maintained in liquid N2 until analysis.
Medium and tissue samples were analyzed for HCV RNA levels according to published procedures (Bonacini et. al., 1999) which utilize an automated, multicycle, polymerase chain reaction (PCR)-based technique. This assay has a lower limit of detection for HCV RNA of 100 viral copies/ml.
Frozen liver slices were disrupted by using a combination of ultrasound probe sonication, Branson Sonifier 450 (Branson Ultrasonics, Danbury, Conn.) and homogenization using a Dounce conical pestle in 200 μls of 10% (v/v) perchloric acid (PCA). After a […] centrifugation at 2,500×g, the supernatants were neutralized using 3 M KOH/3 M KHCO3 and mixed thoroughly. The neutralized samples were centrifuged at 2,500 g for 5 min and NTP levels were determined by ion exchange phase HPLC (Hewlett Packard 1050) using a Whatman Partisil 5 SAX (5 μm, 4.6×250 mm) column. […] Nucleoside triphosphates were eluted from the column using a linear gradient to 80% 1 M ammonium phosphate pH 3.5/6% ethanol buffer, at a flow rate of 1.25 mL/min and detected by UV absorbance (254 nm).

- melting point: 90 to 93 °C
SMILES: CC(=O)O[C@@H]1[C@@H](CO[P@@]2(=O)OCC[C@@H](c3cccc(Cl)c3)O2)O[C@@H](n2ccc3c(N)ncnc32)[C@]1(C)O [Compound 22.2, 4-amino-7-(3′-O-acetyl-cis-5′-O-[4-(S)-(3-chlorophenyl)-2-oxo-1,3,2-dioxaphosphorinan-2-yl]-2′-C-methyl-beta-D-ribofuranosyl)-7H-pyrrolo[2,3-d]pyrimidine]

- melting point: 138 to 141 °C
SMILES: C[C@@]1(O)[C@H](O)[C@@H](COP2(=O)OCC[C@@H](c3ccncc3)O2)O[C@H]1n1ccc2c(=O)[nH]c(N)nc21 (stereo partly drawn) [Compound 17.13, 2-amino-7-(cis-5′-O-[4-(S)-(pyridin-4-yl)-2-oxo-1,3,2-dioxaphosphorinan-2-yl]-2′-C methyl-beta-D-ribofuranosyl)-7H-pyrrolo[2,3-d]pyrimidin-4(3H)-one]

SMILES: CC(C)[C@H](N)C(=O)O[C@@H]1[C@@H](CO[P@@]2(=O)OCC[C@@H](c3cccc(Cl)c3)O2)O[C@@H](n2ccc(N)nc2=O)[C@]1(C)O.O=C(O)C(F)(F)F (relative stereo) [Compound 41.2, cis-5′-O-[4-(S)-(3-Chlorophenyl)-2-oxo-1,2,3-dioxaphosphorin-2-yl]-2′-C-methyl-3′-(L-valinyl)cytidine trifluoroacetic acid salt]
- Liver Targeting Index (Liver/Plasma) [1]: 302
- Cmax ([1]; 2′-C-methylcytidine): 340 nM
- Prodrug Improvement (Fold) ([1]; liver targeting over free nucleoside): 4081 Fold

- melting point: 128 to 133 °C
SMILES: C[C@@]1(O)[C@H](O)[C@@H](COP2(=O)OCC[C@H](c3ccccc3)O2)O[C@H]1n1ccc2c(=O)[nH]c(N)nc21 (stereo partly drawn) [Compound 17.16, 2-amino-7-(cis-5′-O-[4-(R)-phenyl-2-oxo-1,3,2-dioxaphosphorinan-2-yl]-2′-C methyl-beta-D-ribofuranosyl)-7H-pyrrolo[2,3-d]pyrimidin-4(3)-one]

- melting point: 182 to 185 °C
SMILES: CC(=O)O[C@@H]1[C@@H](CO[P@@]2(=O)OCCC(c3ccncc3)O2)O[C@@H](n2ccc3c(N)ncnc32)[C@]1(C)O (some centres unmarked) [Compound 22.1]

SMILES: C[C@@]1(O)[C@H](O)[C@@H](CO)O[C@H]1n1cnc2c(=O)[nH]c(N)nc21 [2′-C-methylguanosine, reference compound]
- amount of HCV RNA released into the culture medium from 48-72 h [2]: decreased

- melting point: 170 to 180 °C
SMILES: C[C@@]1(O)[C@H](O)[C@@H](COP2(=O)OCC[C@H](c3cccc(Cl)c3)O2)O[C@H]1n1ccc2c(=O)[nH]c(N)nc21 (stereo partly drawn) (as salt: trifluoroacetic acid salt) [Compound 17.10, 2-amino-7-(cis-5′-O-[4-(R)-(3-chlorophenyl)-2-oxo-1,3,2-dioxaphosphorinan-2-yl]-2′-C methyl-beta-D-ribofuranosyl)-7H-pyrrolo[2,3-d]pyrimidin-4(3H)-one trifluoroacetic acid salt]

SMILES: C[C@@]1(O)[C@H](O)[C@@H](CO[P@]2(=O)OCC[C@H](c3cccc(Cl)c3)O2)O[C@H]1n1cnc2c(=O)[nH]c(N)nc21 (relative stereo) [Compound 19, cis-5′-O-[4-(3-Chlorophenyl)-2-oxo-1,3,2-dioxaphosphorinan-2-yl]-2′-C-methylguanosine]
- lowering viral RNA production in the culture medium, prodrug compared with nucleoside 2′-C-methylguanosine ([2]; HCV-infected human liver slices, 72 h): more effective
- amount of HCV RNA released into the culture medium from 48-72 h [2]: decreased
